Assay results reported in patent publication US10093670B2, “Azabenzimidazole derivative having AMPK-activating activity” (Shionogi & Co., Ltd., priority 2011, dated 2018).

Target: T1, human AMPK α1β1γ1 enzyme (Homo sapiens, UniProt Q13131+Q9Y478)
T1 construct: purchased Carna Biosciences, Inc
Experiment: Evaluation of AMPK activator, Test Example 1 (mobility-shift kinase assay, FL-Peptide 7)
Type: biochemical
Conditions: for EC150 (compound concentration showing 150% relative to the control (100%)): human AMPK α1β1γ1, 25° C., 2 hours, 0.2 mM ATP final; for Emax: human AMPK α1β1γ1, relative to control (100%), read-out: Emax (maximum rate of increase in activity within the measurement range)
Experimental: The obtained liquid was left to stand for 10 minutes.
The obtained liquid was allowed to react at 25° C. for 2 hours, and 10 μl of 20 mM EDTA was then added thereto to stop the reaction.
To detect phosphorylated fluorescent substrates, the reaction liquid was applied to a measuring device, LabChip EZ Reader II manufactured by Caliper Life Science, Inc., for detecting fluorescence by using differences in mobility due to differences in charge. The setting conditions for the device were pressure, −1.5 PSI; upstream voltage, −2250 V; downstream voltage, −400 V; post sample buffer sip time, 40 seconds; final delay, 120 seconds; and peak order, Product First.
A conversion rate was calculated from the peak heights of the resulting substrate and product. The conversion rate when not containing a compound was used as a control, and a concentration dependent curve was made by plotting the rate of increase in activity to the control at each concentration of a compound.

T1 sequence (Q13131 10-559 limits assumed): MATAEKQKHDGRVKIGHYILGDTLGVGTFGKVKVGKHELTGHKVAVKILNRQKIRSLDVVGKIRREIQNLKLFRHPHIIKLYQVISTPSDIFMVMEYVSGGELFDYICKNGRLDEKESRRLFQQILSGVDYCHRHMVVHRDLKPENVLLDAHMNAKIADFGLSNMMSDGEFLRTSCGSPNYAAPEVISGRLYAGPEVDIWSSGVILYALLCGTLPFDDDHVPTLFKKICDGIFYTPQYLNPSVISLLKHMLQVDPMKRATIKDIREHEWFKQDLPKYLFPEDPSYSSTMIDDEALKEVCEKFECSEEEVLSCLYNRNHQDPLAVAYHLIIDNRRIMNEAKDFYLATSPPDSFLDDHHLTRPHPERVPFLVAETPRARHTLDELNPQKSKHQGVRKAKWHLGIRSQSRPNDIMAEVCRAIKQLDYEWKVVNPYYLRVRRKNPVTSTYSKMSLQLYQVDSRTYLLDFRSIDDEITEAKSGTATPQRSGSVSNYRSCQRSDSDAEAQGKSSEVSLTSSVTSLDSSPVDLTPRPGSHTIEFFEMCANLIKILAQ
T1 sequence (Q9Y478 whole entry): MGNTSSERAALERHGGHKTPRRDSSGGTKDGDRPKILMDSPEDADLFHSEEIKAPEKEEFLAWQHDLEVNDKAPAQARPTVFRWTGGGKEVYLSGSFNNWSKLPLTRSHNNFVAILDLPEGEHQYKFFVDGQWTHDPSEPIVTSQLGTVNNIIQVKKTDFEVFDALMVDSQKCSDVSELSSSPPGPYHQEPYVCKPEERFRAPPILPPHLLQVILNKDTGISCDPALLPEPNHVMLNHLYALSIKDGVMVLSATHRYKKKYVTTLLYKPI
T1 sequence (P54619 whole entry partner): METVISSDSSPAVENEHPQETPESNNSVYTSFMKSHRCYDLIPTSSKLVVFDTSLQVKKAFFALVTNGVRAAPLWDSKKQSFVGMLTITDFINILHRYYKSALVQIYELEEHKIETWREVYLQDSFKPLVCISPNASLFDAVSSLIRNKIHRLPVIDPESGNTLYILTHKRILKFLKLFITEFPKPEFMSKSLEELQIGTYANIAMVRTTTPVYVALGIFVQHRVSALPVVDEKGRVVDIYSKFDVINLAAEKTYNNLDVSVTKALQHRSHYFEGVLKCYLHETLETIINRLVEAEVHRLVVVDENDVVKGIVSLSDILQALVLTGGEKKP

Row | SMILES | EC150 (compound concentration showing 150% relative to the control (100%)) [nM] | Emax [%]
1 | CC(C)(C(=O)O)[C@H]1CC[C@H](Oc2nc3nc(-c4ccc(-c5ccccc5O)cc4)c(Cl)cc3[nH]2)CC1 [Compound I-3-97] | 0.68 | 343
2 | O=C(c1ccc(-c2ccc(-c3nc4nc(O[C@H]5CC[C@H](C(=O)O)CC5)[nH]c4cc3Cl)cc2)cc1)N1CCOCC1 [Compound I-2-61] | 72 | 189
3 | CC(C)(C(=O)O)C1CCC(Oc2nc3nc(-c4ccc(N5CCCC5)cc4)c(Cl)cc3[nH]2)CC1 (stereo not drawn) [Compound I-3-44] | 7.6 | 275
4 | O=C(O)c1ccc(-c2ccc(-c3nc4nc(O[C@H]5C[C@@H](C(=O)N6CC(O)C6)C5)[nH]c4cc3Cl)cc2)cc1 [Compound I-3-115] | 23 | 260
5 | NC(=O)[C@H]1CC[C@H](Oc2nc3nc(-c4ccc(N5CCOCC5)cc4)c(Cl)cc3[nH]2)CC1 [Compound I-2-33] | 70 | 236
6 | O=C(O)COc1nc2nc(-c3ccc(N4CCOCC4)cc3)c(Cl)cc2[nH]1 [Compound I-1-10] | 390 | 270
7 | O=C(O)CN1CCC(Oc2nc3nc(-c4ccc(N5CCOCC5)cc4)c(Cl)cc3[nH]2)CC1.O=CO [Compound I-1-11] | 2100 | 238
8 | CC(C#N)Oc1nc2nc(-c3ccc(N4CCOCC4)cc3)c(Cl)cc2[nH]1 (stereo not drawn) [Compound I-1-27] | 310 | 226
9 | O=C(O)CSc1nc2nc(-c3ccc(N4CCOCC4)cc3)c(Cl)cc2[nH]1 [Compound I-1-4] | 160 | 283
10 | CC(Cc1nc2nc(-c3ccc(N4CCOCC4)cc3)c(Cl)cc2[nH]1)C(=O)O (stereo not drawn) [Compound I-1-62] | 540 | 228
11 | CC(C)(C(=O)O)[C@]1(O)CC[C@@H](Oc2nc3nc(-c4ccc(N5CCCCC5)cc4)c(Cl)cc3[nH]2)CC1 [Compound I-3-51] | 4.5 | 338
12 | O=C(O)C[C@H]1CC[C@H](Oc2nc3nc(-c4ccc(N5CCOCC5)cc4)c(Cl)cc3[nH]2)CC1 [Compound I-2-40] | 51 | 293
13 | O=C(COc1nc2nc(-c3ccc(N4CCOCC4)cc3)c(Cl)cc2[nH]1)N1CCC(F)(F)CC1 [Compound I-1-21] | 730 | 284
14 | O=C(O)[C@]1(O)CC[C@@H](Oc2nc3nc(-c4ccc(N5CCOCC5)cc4)c(Cl)cc3[nH]2)CC1 [Compound I-3-75] | 47 | 236
15 | CC(C)(C(=O)O)[C@H]1CC[C@H](Oc2nc3nc(-c4ccc(-c5ccc(C(=O)N6CCC(O)CC6)cc5)cc4)c(Cl)cc3[nH]2)CC1 [Compound I-3-106] | 9.1 | 311
16 | O=C(O)C1(COc2nc3nc(-c4ccc(N5CCOCC5)cc4)c(Cl)cc3[nH]2)CC1 [Compound I-2-116] | 130 | 229
17 | Oc1cc(COc2nc3nc(-c4ccc(N5CCOCC5)cc4)c(Cl)cc3[nH]2)on1 [Compound I-1-12] | 320 | 263
18 | O=C(O)C1CCC(Oc2nc3nc(-c4ccc(N5CCOCC5)cc4)c(Cl)cc3[nH]2)C1 (stereo not drawn) [Compound I-3-53] | 51 | 261
19 | CC(C)(C(=O)O)[C@]1(O)CC[C@@H](Oc2nc3nc(-c4c(F)cc(N5CCOCC5)cc4F)ccc3[nH]2)CC1 [Compound I-3-62] | 22 | 333
20 | CC(C)(C(N)=O)C1CCC(Oc2nc3nc(-c4ccc(N5CCOCC5)cc4)c(Cl)cc3[nH]2)CC1 (stereo not drawn) [Compound I-3-25] | 230 | 210
21 | CN1CCC(Oc2nc3nc(-c4ccc(N5CCOCC5)cc4)c(Cl)cc3[nH]2)CC1 [Compound I-1-25] | 3100 | 226
22 | CS(=O)(=O)N1CCC(Oc2nc3nc(-c4ccc(N5CCOCC5)cc4)c(Cl)cc3[nH]2)CC1 [Compound I-1-32] | 200 | 280
23 | CC(C)(Sc1nc2nc(-c3ccc(N4CCOCC4)cc3)c(Cl)cc2[nH]1)C(=O)O [Compound I-1-57] | 140 | 277
24 | CC(Oc1nc2nc(-c3ccc(N4CCOCC4)cc3)c(Cl)cc2[nH]1)[C@H]1CC[C@H](C(=O)O)CC1 (stereo partly drawn) [Compound I-2-88] | 65 | 288
25 | O=C(c1ccc(-c2ccc(-c3nc4nc(O[C@H]5CC[C@H](C(=O)O)CC5)[nH]c4cc3Cl)cc2)cc1)N1CCC(O)CC1 [Compound I-3-104] | 21 | 203
26 | CC(C)(C(=O)O)[C@H]1CC[C@H](Oc2nc3nc(-c4ccc(-c5ccc(C(=O)N6CCOCC6)cc5)cc4)c(Cl)cc3[nH]2)CC1 [Compound I-3-108] | 8.2 | 291

Results, then the compound that gave them:

Row | EC150 (compound concentration showing 150% relative to the control (100%)) [nM] | Emax [%] | SMILES
27 | 910 | 228 | CC(Oc1nc2nc(-c3ccc(N4CCOCC4)cc3)c(Cl)cc2[nH]1)C(N)=O (stereo not drawn) [Compound I-1-37]
28 | 4.9 | 276 | CN(C)C(=O)N1CC=C(c2ccc(-c3nc4nc(O[C@H]5CC[C@H](C(C)(C)C(=O)O)CC5)[nH]c4cc3Cl)cc2)CC1 [Compound I-3-85]
29 | 21 | 287 | CN(C)C(=O)[C@H]1C[C@@H](Oc2nc3nc(-c4ccc(-c5ccc(C(=O)O)cc5)cc4)c(Cl)cc3[nH]2)C1 [Compound I-3-91]
30 | 49 | 205 | O=C(O)[C@H]1CC[C@H](Oc2nc3nc(-c4ccc(-c5ccccc5O)cc4)c(Cl)cc3[nH]2)CC1 [Compound I-2-60]
31 | 650 | 178 | O=C(O)[C@H]1CC[C@H](Oc2nc3nc(-c4ccc(-c5ccccc5)cc4)c(Cl)cc3[nH]2)CC1 [Compound I-2-30]
32 | 9.6 | 301 | CC(C)(C(=O)O)C1CCC(Oc2nc3nc(-c4ccc(C5=CCOCC5)cc4)c(Cl)cc3[nH]2)CC1 (stereo not drawn) [Compound I-3-93]
33 | 6400 | 161 | CC(Oc1nc2nc(-c3ccc(C4=CCC(C(=O)O)CC4)cc3)c(Cl)cc2[nH]1)c1ccccn1 (stereo not drawn) [Compound I-2-104]
34 | 5.1 | 286 | CC(=O)N1CC=C(c2ccc(-c3nc4nc(OC5CCC(C(C)(C)C(=O)O)CC5)[nH]c4cc3Cl)cc2)CC1 (stereo not drawn) [Compound I-3-39]
35 | 2300 | 181 | CC(=O)N1CC=C(c2ccc(-c3nc4nc(O[C@H]5CC[C@H](C(=O)O)CC5)[nH]c4cc3Cl)cc2)CC1 [Compound I-2-59]
36 | 60 | 259 | CCC(Oc1nc2nc(-c3ccc(N4CCCC4)cc3)c(Cl)cc2[nH]1)c1cc(O)no1 (stereo not drawn) [Compound I-3-69]
37 | 23 | 303 | CC(=O)N1CC=C(c2ccc(-c3nc4nc(OC5CCC(C(C)(C)CO)CC5)[nH]c4cc3Cl)cc2)CC1 (stereo not drawn) [Compound I-3-92]
38 | 24 | 233 | CC(=O)NC1CCN(c2ccc(-c3nc4nc(OC5CCC(C(C)(C)C(=O)O)CC5)[nH]c4cc3Cl)cc2)CC1 (stereo not drawn) [Compound I-3-65]
39 | 130 | 232 | CC(Oc1nc2nc(-c3ccc(C4=CCC(C(=O)O)CC4)cc3)c(Cl)cc2[nH]1)C(N)=O (stereo not drawn) [Compound I-3-14]
40 | 650 | 169 | CC(=O)NC1CC=C(c2ccc(-c3nc4nc(O[C@H]5CC[C@H](C(=O)O)CC5)[nH]c4cc3Cl)cc2)CC1 (stereo partly drawn) [Compound I-2-58]
41 | 160 | 228 | CCC(Oc1nc2nc(-c3ccc(C4=CCC(NC(C)=O)CC4)cc3)c(Cl)cc2[nH]1)C(N)=O (stereo not drawn) [Compound I-3-50]
42 | 61 | 240 | CCC(Oc1nc2nc(-c3ccc(N4CCOCC4)cc3)c(Cl)cc2[nH]1)C(=O)O (stereo not drawn) [Compound I-3-11]
43 | 2400 | 193 | CN(C)C(=O)N1CC(Oc2nc3nc(-c4ccc(C5=CCC(C(=O)O)CC5)cc4)c(Cl)cc3[nH]2)C1 (stereo not drawn) [Compound I-2-71]
44 | 280 | 228 | CC(C)C(Oc1nc2nc(-c3ccc(N4CCOCC4)cc3)c(Cl)cc2[nH]1)C(=O)O (stereo not drawn) [Compound I-3-27]
45 | 3.4 | 389 | CC(C)(C(=O)O)[C@]1(O)CC[C@@H](Oc2nc3nc(-c4ccc(-c5ccccc5)cc4)c(Cl)cc3[nH]2)CC1 [Compound I-3-66]
